# From PMC12731105, “Design and Synthesis of New Quinoxaline Analogs to Regenerate Sensory Auditory Hair Cells” (Cells, 2025)
# Experiments:
# Neuro-2A = test: TACS MTT cell proliferation / metabolic activity assay in Neuro-2A; format: cell-based, mouse; conditions: for Increase in MTT absorbance compared to DMSO controls and untreated cells: low-dose exposure (≤5 μM); for MTT absorbance change at higher concentrations: ≥5 μM
# Protocol: (§1) HEI-OC1 cells derived from the mouse OC (kindly provided by Dr. F. Kalinec) were cultured under permissive conditions (33 °C, 10% CO2) as described in [22]. Additionally, we assessed the activity of Qx-derived compounds in the mouse neuroblastoma cell line, Neuro-2A, and the human fibrosarcoma HT-1080 (ATCC, Manassas, VA, USA) following the standard cell culture guidelines provided by the vendor.
# (§2) In vitro cell proliferation effects of all ten initial compounds (Figure 1A,B) were tested on HEI-OC1, Neuro-2A and HT-1080 cells by TACS® 3-(4,5-dimethylthiazol-2-yl)-2,5-diphenyltetrazolium bromide (MTT) Cell Proliferation Assay (R&D Systems, Minneapolis, MN, USA, 4890-025-K), following the manufacturer’s protocol. Absorbance was measured with SpectraMax® M Series Multi-Mode Microplate Reader with Soft Max Pro 7.2 GxP Software (Molecular Devices, Sunnyvale, CA, USA), and the average OD in control cells was taken as 100% of viability. Upon selecting the most viable compounds (Qx-294 and Qx-301), we proceeded with in vivo experiments. For zebrafish treatment, animals were incubated for varied times with different concentrations (50, 100, 150, 200, 250, and 300 μg/mL) of Qx-294 or Qx-301 diluted in swimming (E3) media or administered via IP injections. Mice treatment followed the same procedures as described in [18]. Following treatment, animals or tissue samples were incubated in Click-it EdU or Click-it Plus TUNEL kits (Thermo Scientific, Waltham, MA, USA), following the manufacturer’s instructions to label proliferating and apoptotic cells, respectively.
# HT-1080 = test: TACS MTT cell proliferation / metabolic activity assay in HT-1080; format: cell-based, human; conditions: for Increase in MTT absorbance compared to DMSO controls and untreated cells: HT-1080, low-dose exposure (≤5 μM); for MTT absorbance change at higher concentrations: HT-1080, ≥5 μM
# Protocol: as §1, §2
# HEI-OC1 cells = test: TACS MTT cell proliferation / metabolic activity assay in HEI-OC1; format: cell-based, mouse; conditions: for Proliferative effect and metabolic activity at low concentrations: 0.1 μM to 5 μM, 24 h incubation, also stated for Neuro-2A and HT-1080; for Proliferative effect vs Qx-70 and untreated cells: HEI-OC1, TACS MTT; for Metabolic and proliferative activities at high concentrations: concentrations higher than 5 μM, across all three lines
# Protocol: as §1, §2
# [1] = system: zebrafish neuromast cells; test: TUNEL assay in zebrafish neuromasts; format: in vivo, zebrafish (Danio rerio); conditions: 400 μM, 6 h
# Protocol: Absorbance was measured with SpectraMax® M Series Multi-Mode Microplate Reader with Soft Max Pro 7.2 GxP Software (Molecular Devices, Sunnyvale, CA, USA), and the average OD in control cells was taken as 100% of viability. […] Mice treatment followed the same procedures as described in [18]. Following treatment, animals or tissue samples were incubated in Click-it EdU or Click-it Plus TUNEL kits (Thermo Scientific, Waltham, MA, USA), following the manufacturer’s instructions to label proliferating and apoptotic cells, respectively.
Compound,Increase in MTT absorbance compared to DMSO controls and untreated cells (Neuro-2A),MTT absorbance change at higher concentrations (Neuro-2A),Increase in MTT absorbance compared to DMSO controls and untreated cells (HT-1080),MTT absorbance change at higher concentrations (HT-1080),Proliferative effect and metabolic activity at low concentrations (HEI-OC1 cells),Proliferative effect vs Qx-70 and untreated cells (HEI-OC1 cells),Metabolic and proliferative activities at high concentrations (HEI-OC1 cells),"Cell death (TUNEL) in neuromasts, positive control [1]"
"c1ccc2nc(N3CCSCC3)cnc2c1 [Qx-295, 2-(thiomorpholine)-quinoxaline]",≤ 9%,moderate reductions,≤ 9%,moderate reductions,high proliferative effect and increased metabolic activity,significant and reproducible proliferative effects greater than those of Qx-70 and the untreated cells,declined,–
"CC(=O)N1CCN(c2cnc3ccccc3n2)CC1 [Qx-296, 2-(4-acetylpiperazine)-quinoxaline]",≤ 9%,moderate reductions,≤ 9%,moderate reductions,high proliferative effect and increased metabolic activity,significant and reproducible proliferative effects greater than those of Qx-70 and the untreated cells,declined,–
"CCNc1cnc2ccccc2n1 [Qx-292, 2-(ethylamine)-quinoxaline]",≤ 9%,moderate reductions,≤ 9%,moderate reductions,high proliferative effect and increased metabolic activity,significant and reproducible proliferative effects greater than those of Qx-70 and the untreated cells,declined,–
"N.N.[Cl][Pt][Cl] [cisplatin, reference compound]",–,–,–,–,–,–,–,extensive cell death
